Results on 4 compounds are retold here after patent US20230285282A1, “OCULAR IMPLANT CONTAINING AN ACTIVE INGREDIENT” (OCULAR THERAPEUTIX, INC., priority 2020, published 2023).

Values after ≈ are worked out from the molar mass of the structure shown. Read-outs that look alike come from different tables or passages of the source.

The conditions of data set [1]: cited from earlier work.
A further data set can be described thus: physchem. The note with it: PBS, 37 °C, pH 7.2, aqueous buffer.
In another data set the test system is CYP3A4/5. As to conditions: cited from earlier work.
The conditions of data set [2]: 1.25 mg intravitreal, rabbits; cited from earlier work.
A further data set deals with vascular leakage. Briefly: VEGF challenge, vascular leakage scored by fluorescein angiography. It is filed as in vivo, Dutch belted rabbits. The method, then: For efficacy studies, 12 animals (with and without the implant) received an […] VEGF challenge (1 μg) 48 hours prior to selected time points (1, 2, 3, and 6 months after implant injection; 3 animals euthanized at each time point) to induce vascular proliferation and leakage. Rabbits were followed for 6 months from the administration of the implant. Eyes were imaged 48 hours post VEGF challenge using fluorescein angiography (FA) after intravenous injection of fluorescein and were graded on a scale from 0 to 4 (Table 9). Each eye was scored on the left and right side to account for non-uniformity in inflammatory response. FA scores were then averaged for each eye.
Animals from each group were […] challenged with VEGF (1 μg) 48 hours prior to selected time points (0.5, 1, 3, 6, 9, 12, 14, 16, 19, 20, and 21 months) to induce vascular proliferation and leakage. Eyes were imaged 48 hours post VEGF challenge time-points using fluorescein angiography (FA) and were graded on a scale from 0 (normal) to 4 (severe leakage) as described under Example 3.2.

In the case of aflibercept: anti-VEGF agent, the “t1/2 in the human eye” value in data set [1] is listed as “several days”.
Regarding ranibizumab: anti-VEGF agent, the “t1/2 in the human eye” value in data set [1] is on record as “several days”.
What is called solubility is the dissolved amount per volume that the medium holds. As to `CNC(=O)c1ccccc1Sc1ccc2c(/C=C/c3ccccn3)n[nH]c2c1` [axitinib, N-methyl-2-[3-((E)-2-pyridin-2-yl-vinyl)-1H-indazol-6-ylsulfanyl]-benzamide], in “physchem”, the solubility is 0.4 to 0.5 µg/mL (≈ 1.03 to 1.29 µM). Further, the “clearance half-life (t1/2)” value in data set [1] (Rugo et al. 2005) is recorded as “a few hours”. The “axitinib exposure (Cmax)” value in the data set with CYP3A4/5 (co-administration with oral ketoconazole) is on record as “increased”; in the data set with CYP3A4/5 (co-administration with rifamycin), “decreased”.
For orientation: half-life means the time needed for the level to fall by half in the phase considered. Take Avastin®: anti-VEGF therapeutic: the half-life in data set [2] is 158 h. In addition, the “duration of effect post injection” value in the data set on vascular leakage (1.25 mg Avastin only) is given as no more than 3 months. Also, the “vascular leakage after VEGF challenge” value with vascular leakage (1.25 mg Avastin only (group 3)) is recorded as “after 3 months vascular leakage re-occurred”.
